Experiments:
mice = assay: Passive avoidance test, scopolamine-induced memory failure; type: in vivo; conditions: scopolamine (1 mg/kg) group = 0%; for memory improvement / prevention activity to memory failure: passive avoidance latency, control without scopolamine and drugs = 100%, oral single administration, dose of compound not given
Description: A shuttle box (50×15×40 cm) was used as an experimental device. The box was divided into two rooms by a guillotine door, where one of which was bright by illumination while the other was dark by black cloth, giving rise to two different illumination effects. Firstly, mice were placed into a bright room, the bright room was kept lighted and the guillotine door was kept open. The mice entered the dark room in 20 sec in accordance with their negative phototaxis and the guillotine door was kept closed upon the entrance. The latency period in which a mouse enters the dark room from the bright room was measured in a manner described above. On the first day of the test, all mice were subject to a training trial for 20-sec latency period. Next day, mice subject to the training trial were again placed in the bright room and the bright room was then kept lighted to render mice to enter the dark room. At this time, the electric shock of 0.8 mA was imposed for 3 sec by using an electric grid equipped on the bottom of the dark room to impose the electric shock on the sole of mice feet. After 24 hr of such acquisition trial, mice were again placed in the bright room and the bright room was then kept lighted to induce mice to enter the dark room. At this time, normal mice hesitated to enter the dark room due to the memory about the shock of the previous day. […] The control not subject to the administration of scopolamine and drugs was considered 100% and the group subject to the administration of scopolamine (1 mg/kg), known to result in the failure of memory through the inhibition of transmission of neurotransmitters, was considered 0%.

in vivo = conditions: male, ICR, mouse, in vivo, po
Description: (§1) Furthermore, for 2 weeks after the administration, the death rate, general conditions and body weight of mice were examined and abnormality of organs was observed via autopsy.

ICR mice = assay: in vivo; conditions: oral; for disorders (general conditions): all dosages (2.0 g/kg, 680, 230, 75 mg/kg); for disorders (general conditions) / results of autopsy (abnormality of organs): ICR mice; for results of autopsy (abnormality of organs): autopsy after 2 weeks observation, versus control group; for LD10: seven times in 1 week, male ICR mice, observed 2 weeks
Description: as §1

SMILES	memory improvement / prevention activity to memory failure (mice) [%]	LD50 (in vivo) [mg/kg]	disorders (general conditions) (ICR mice)	results of autopsy (abnormality of organs) (ICR mice)	LD10 (ICR mice) [mg/kg]	prevention efficacy to memory failure (mice; positive control, oral administration 30 mg/kg, control = 100%) [%]
CC1(C)CCC2(C(=O)O)CCC3(C)C(=CCC4C5(C)CCC(O)C(C)(CO)C5CCC43C)C2C1 (stereo not drawn) [hederagenine]	41.1	≥ 5000	no disorders	not different from the control group	750	
CC1(C)CC[C@]2(C(=O)O)CC[C@]3(C)C(=CC[C@@H]4[C@@]5(C)CC[C@H](O)C(C)(C)[C@@H]5CC[C@]43C)[C@@H]2C1 [oleanolic acid]	43.3	≥ 5000		not different from the control group	750	
Nc1c2c(nc3ccccc13)CCCC2 [tacrine, reference compound]						35
C[C@H]1[C@H](C)CC[C@]2(C(=O)O)CC[C@]3(C)C(=CC[C@@H]4[C@@]5(C)CC[C@H](O)C(C)(C)[C@@H]5CC[C@]43C)[C@H]12 [ursolic acid]	37.0	≥ 5000	no disorders	not different from the control group	750	
